Results from patent US20220306609A1, “BICYCLIC COMPOUNDS AS ANDROGEN RECEPTOR MODULATORS” (NIDO BIOSCIENCES, INC., priority 2021, published 2022).

Molecular target: T1, androgen receptor (AR) (Homo sapiens, UniProt P10275, T878A)
T1 construct: LNCaP cells expressing ARR2PB-FireflyLuc and CMV-RenillaLuc; endogenous in cells; host or cells: LNCaP
T1 sequence (P10275 1-920 T878A): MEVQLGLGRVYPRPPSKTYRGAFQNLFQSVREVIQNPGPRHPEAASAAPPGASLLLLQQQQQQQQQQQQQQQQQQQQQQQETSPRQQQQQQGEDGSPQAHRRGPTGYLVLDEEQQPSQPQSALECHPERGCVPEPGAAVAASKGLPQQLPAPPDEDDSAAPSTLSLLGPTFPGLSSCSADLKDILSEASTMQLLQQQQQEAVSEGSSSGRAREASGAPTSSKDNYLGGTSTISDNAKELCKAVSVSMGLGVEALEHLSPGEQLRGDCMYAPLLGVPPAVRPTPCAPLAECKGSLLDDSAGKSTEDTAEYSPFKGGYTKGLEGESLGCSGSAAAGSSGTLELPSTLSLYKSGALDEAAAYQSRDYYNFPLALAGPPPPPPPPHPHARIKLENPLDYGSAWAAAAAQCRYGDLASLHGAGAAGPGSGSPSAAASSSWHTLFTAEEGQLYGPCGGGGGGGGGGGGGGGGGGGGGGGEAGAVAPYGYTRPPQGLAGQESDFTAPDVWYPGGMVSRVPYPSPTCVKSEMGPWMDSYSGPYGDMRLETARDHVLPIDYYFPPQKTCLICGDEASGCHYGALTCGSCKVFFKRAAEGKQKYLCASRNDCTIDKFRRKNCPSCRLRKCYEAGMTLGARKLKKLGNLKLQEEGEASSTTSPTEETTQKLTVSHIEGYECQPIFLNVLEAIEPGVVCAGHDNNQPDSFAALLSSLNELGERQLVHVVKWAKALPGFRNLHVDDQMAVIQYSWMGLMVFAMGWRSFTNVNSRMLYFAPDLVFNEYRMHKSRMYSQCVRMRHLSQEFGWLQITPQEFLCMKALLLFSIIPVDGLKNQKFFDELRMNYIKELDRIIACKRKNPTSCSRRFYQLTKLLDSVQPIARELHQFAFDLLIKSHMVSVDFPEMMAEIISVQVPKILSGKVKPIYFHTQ
Test: LNCaP ARR2PB-FireflyLuc / CMV-RenillaLuc reporter assay, antagonist mode
Type: cell-based
Settings: LNCaP cells expressing ARR2PB-FireflyLuc and CMV-RenillaLuc; +/- 0.5 nM DHT; 48 h at 37° C
Procedure: LNCaP cells expressing ARR2PB-FireflyLuc and CMV-RenillaLuc were treated with indicated concentrations of test compounds, enzalutamide ([…]), or DHT (positive control)+/−0.5 nM DHT for 48 h at 37° C. Fluorescent signals were read with the ImageXpress Micro Confocal System. Remaining activity (antagonist mode) was calculated as % Remaining Activity=100×[(ReadSample−[…])/(HCave−LCave)] where HC is cells treated with 0.5 nM DHT only and LC is cells treated with 10 uM enzalutamide+0.5 nM DHT. Activation (agonist mode) was calculated as % Activation=100×[(ReadSample−LCave)/(HCave−LCave)] where HC is cells treated with 1 uM DHT and LC is cells treated with DMSO. Dose response curves and IC50 values were calculated using non-linear regression analysis in XLfit.
The designation “A” indicates an IC50 value of >10 μM, “B” indicates an IC50 value between 1 μM and 10 μM; “C” indicates an IC50 value between 100 nM and 1 μM; and “D” indicates an IC50 value of less than 100 nM.

IC50 [nM] | SMILES
100 to 1000 | N#Cc1cccc2c(-c3ccc(=O)n(CC(F)F)n3)c[nH]c12 [Compound 004, 3-[1-(2,2-difluoroethyl)-6-oxopyridazin-3-yl]-1H-indole-7-carbonitrile]
1000 to 10000 | CCn1nc(-c2c[nH]c3c(C#N)cccc23)c(C)cc1=O [Compound 005, 3-(1-ethyl-4-methyl-6-oxopyridazin-3-yl)-1H-indole-7-carbonitrile]
> 10000 | CC(C)(O)Cn1ccc(-c2c[nH]c3c(C#N)cccc23)n1 [Compound 010, 3-[1-(2-hydroxy-2-methylpropyl)pyrazol-3-yl]-1H-indole-7-carbonitrile]
1000 to 10000 | CCn1nc(-c2c[nH]c3c(C#N)cccc23)cc(OC)c1=O [Compound 006, 3-(1-ethyl-5-methoxy-6-oxopyridazin-3-yl)-1H-indole-7-carbonitrile]
< 100 | CCn1nc(-c2c[nH]c3c(C#N)cccc23)ccc1=O [Compound 002, 3-(1-ethyl-6-oxopyridazin-3-yl)-1H-indole-7-carbonitrile]
< 100 | CCn1ccc(-c2c[nH]c3c(C#N)cccc23)n1 [Compound 008, 3-(1-ethylpyrazol-3-yl)-1H-indole-7-carbonitrile]
< 100 | CCn1nc(C)cc1-c1c[nH]c2c(C#N)cccc12 [Compound 012, 3-(2-ethyl-5-methylpyrazol-3-yl)-1H-indole-7-carbonitrile]
100 to 1000 | CCn1nc(-c2c[nH]c3c(C#N)cccc23)cc1C [Compound 011, 3-(1-ethyl-5-methylpyrazol-3-yl)-1H-indole-7-carbonitrile]
100 to 1000 | N#Cc1cccc2c(-c3ccn(C4CC4)n3)c[nH]c12 [Compound 009, 3-(1-cyclopropylpyrazol-3-yl)-1H-indole-7-carbonitrile]
1000 to 10000 | CCn1cc(-c2c[nH]c3c(C#N)cccc23)cn1 [Compound 007, 3-(1-ethylpyrazol-4-yl)-1H-indole-7-carbonitrile]
100 to 1000 | CCN1N=C(c2c[nH]c3c(C#N)cccc23)CCC1=O [Compound 001, 3-(1-ethyl-6-oxo-4,5-dihydropyridazin-3-yl)-1H-indole-7-carbonitrile]
> 10000 | CCn1nc(-c2c[nH]c3c(Cl)nccc23)ccc1=O [Compound 003, 6-[7-chloro-1H-pyrrolo[2,3-c]pyridin-3-yl]-2-ethylpyridazin-3-one]
